Key:
human IgG Fc = target: T1, human IgG Fc (Homo sapiens, UniProt P01857); assay: Phage competition ELISA for epitope mapping (various synthetic DCPs vs phage displaying one DCP); format: binding
T1 construct: Biotin-SP-ChromPure Human IgG, Fc fragment; purchased Jackson Immunoresearch Labs Inc. 009060008

[1] = 100% human serum, 0.2 mM DCP, 37°C, LC-MS, UV 220 nm peak area normalized to 0 h, three independent experiments

CC[C@H](C)[C@@H]1NC(=O)[C@H](CO)NC(=O)[C@H]([C@@H](C)CC)NC(=O)[C@H](CO)NC(=O)[C@H](CO)NC(=O)[C@@H]2CSSC[C@@H]3NC(=O)[C@H](CO)NC(=O)CNC(=O)[C@H]([C@@H](C)O)NC(=O)[C@H](CSSC[C@H](NC(=O)[C@@H](N)CCC(=O)O)C(=O)N[C@@H](CCCCN)C(=O)NCC(=O)N[C@@H](CCCCN)C(=O)NCC(=O)N[C@@H](C)C(=O)N[C@@H](CCCCN)C(=O)N2)NC(=O)[C@H](CSSC[C@@H](C(=O)O)NC(=O)[C@H](CCCCN)NC(=O)CNC(=O)[C@H](CO)NC(=O)[C@H](CCCNC(=N)N)NC3=O)NC(=O)[C@H](Cc2c[nH]cn2)NC(=O)[C@H](C)NC(=O)[C@H](CC(=O)O)NC(=O)[C@H](Cc2c[nH]cn2)NC1=O [Ig-CON-5]
inhibition of interaction between biotinylated hIgG Fc and phage displaying Ig-AMP-1 (human IgG Fc; Fig 4D): potently inhibited | inhibition of interaction between human IgG Fc and phage displaying Ig-CON-5 (human IgG Fc; Fig S15): potently inhibited | loss of peptides after 24 h [1]: 40–50%

— PMC10977726 (PLOS ONE, 2024)
